Measurements published in US8916499B2, “Herbicidal compositions comprising 4-amino-3-chloro-5-fluoro-6-(4-chloro-2-fluoro-3-methoxyphenyl) pyridine-2-carboxylic acid or a derivative thereof and a protoporphyrinogen oxidase inhibitor” (Dow AgroSciences LLC, priority 2012, dated 2014).

Assays:
ECHOR = experiment: In-water applied weed control, transplanted paddy rice, greenhouse (Example II); format: in vivo, Echinochloa oryzoides (Ard.) Fritsch
PAPRH = experiment: Postemergence foliar herbicidal activity of mixtures in cereal crops, greenhouse (Example III); format: in vivo, Papaver rhoeas L.; details: foliar-applied
Protocol: Seeds of the desired test plant species were planted in Sun Gro MetroMix® 306 planting mixture, which typically has a pH of 6.0 to 6.8 and an organic matter content of about 30 percent, in plastic pots with a surface area of 103.2 square centimeters (cm^2). When required to ensure good germination and healthy plants, a fungicide treatment and/or other chemical or physical treatment was applied. The plants were grown for 7-36 days in a greenhouse with an approximate 14 hour photoperiod which was maintained at about 18° C. during the day and about 17° C. during the night. Nutrients and water were added on a regular basis and supplemental lighting was provided with overhead metal halide 1000-Watt lamps as necessary. The plants were employed for testing when they reached the second or third true leaf stage.
Treatments consisted of the benzyl ester of 4-amino-3-chloro-5-fluoro-6-(4-chloro-2-fluoro-3-methoxy-phenyl)pyridine-2-carboxylic acid (Compound A), formulated as an SC, a second cereal herbicide alone and then both in combination.
Other herbicidal components were applied on an active ingredient basis and included PSII-inhibiting herbicides.
Measured aliquots of benzyl ester of 4-amino-3-chloro-5-fluoro-6-(4-chloro-2-fluoro-3-methoxy-phenyl)pyridine-2-carboxylic acid (Compound A) were placed in 25 milliliter (mL) glass vials and diluted in a volume of 1.25% (v/v) Agri-Dex® crop oil concentrate to obtain stock solutions. Compound requirements are based upon a 12 mL application volume at a rate of 187 liters per hectare (L/ha). Spray solutions of the second cereal herbicide and experimental compound mixtures were prepared by adding the stock solutions to the appropriate amount of dilution solution to form 12 mL spray solution with active ingredients in two- and three-way combinations. Formulated compounds were applied to the plant material with an overhead Mandel track sprayer equipped with an 8002E nozzle calibrated to deliver 187 L/ha over an application area of 0.503 square meters (m^2) at a spray height of 18 inches (46 cm) above average plant canopy. Control plants were sprayed in the same manner with the solvent blank.
The treated plants and control plants were placed in a greenhouse as described above and watered by sub-irrigation to prevent wash-off of the test compounds. After 20-22 days, the condition of the test plants as compared with that of the control plants was determined visually and scored on a scale of 0 to 100 percent where 0 corresponds to no injury and 100 corresponds to complete kill.
(§1) Colby's equation was used to determine the herbicidal effects expected from the mixtures (Colby, S. R. 1967. Calculation of the synergistic and antagonistic response of herbicide combinations. Weeds 15:20-22.).
(§2) The following equation was used to calculate the expected activity of mixtures containing two active ingredients, A and B: Expected=A+B−(A×B/100)

CYPIR = experiment: Postemergence foliar-applied weed control, direct seeded rice, greenhouse (Example I); format: in vivo, Cyperus iria L.
IPOHE [1] = experiment: as above; format: in vivo, Ipomoea hederacea Jacq.
SCPMA = experiment: In-water applied weed control, transplanted paddy rice, greenhouse (Example II); format: in vivo; details: Bifenox (Fox ®) 180 g ai/ha alone
ECHCG = experiment: as above; format: in vivo, Echinochloa crus-galli (L.) P. Beauv.
LEFCH [2] = experiment: as above; format: in vivo, Leptochloa chinensis (L.) Nees
FIMMI = experiment: as above; format: in vivo, Fimbristylis miliacea (L.) Vahl; details: 8.75 g ae/ha alone
SCPJU = experiment: as above; format: in vivo, Schoenoplectus juncoides (Roxb.) Palla
ECHCO = experiment: Postemergence foliar-applied weed control, direct seeded rice, greenhouse (Example I); format: in vivo, Echinochloa colona (L.) Link; details: g ae/ha Compound A Acid+g ai/ha saflufenacil: r24 4.38+0, r25 0+5, r26 0+10, r27 0+20, r28 4.38+5, r29 4.38+10, r30 4.38+20
CYPRO = experiment: In-water applied weed control, transplanted paddy rice, greenhouse (Example II); format: in vivo, Cyperus rotundus L.
LEFCH [3] = experiment: Postemergence foliar-applied weed control, direct seeded rice, greenhouse (Example I); format: in vivo, Leptochloa chinensis (L.) Nees; details: g ae/ha Compound A Acid+g ai/ha carfentrazone-ethyl: r39 19.4+0, r40 0+28, r41 19.4+28
BRAPP = experiment: as above; format: in vivo, Brachiaria platyphylla (Griseb.) Nash; details: g ae/ha Compound A Acid+g ai/ha pyraclonil: r11 4.38+0, r12 0+33.75, r13 0+67.5, r14 0+135, r15 4.38+33.75, r16 4.38+67.5, r17 4.38+135
SETVI = experiment: Pre-emergence soil-applied weed control, greenhouse (Example IV); format: in vivo, Setaria viridis (L.) Beauv.; details: 105 g ai/ha alone
Source text: (§3) Seeds or nutlets of the desired test plant species were planted in a soil matrix prepared by mixing a loam soil (32 percent silt, 23 percent clay, and 45 percent sand, with a pH of about 6.5 and an organic matter content of about 1.9 percent) and calcareous grit in an 80 to 20 ratio. The soil matrix was contained in plastic pots with a volume of 1 quart and a surface area of 83.6 square centimeters (cm^2).
(§4) Treatments consisted of the benzyl ester of 4-amino-3-chloro-5-fluoro-6-(4-chloro-2-fluoro-3-methoxy-phenyl)pyridine-2-carboxylic acid (compound A) formulated as an SC (suspension concentrate) and various herbicidal components alone and in combination. Forms of compound A were applied on an acid equivalent basis.
(§5) Other herbicidal components were applied on an acid equivalent or active ingredient basis and included the protoporphyrinogen oxidase (PPO)-inhibiting herbicides, flumioxazin formulated as Payload® and oxadiazon formulated as Ronstar® 50W.
(§6) Treatment requirements were calculated based upon the rates being tested, the concentration of active ingredient or acid equivalent in the formulation, and a 12 mL application volume at a rate of 187 L/ha.
For treatments comprised of formulated compounds, measured amounts of compounds were placed individually in 25 mL glass vials and diluted in a volume of 1.25% (v/v) Agri-Dex® crop oil concentrate (COC) to obtain 12× stock solutions. […] Application solutions were prepared by adding an appropriate amount of each stock solution (e.g., 1 mL) and diluted to the appropriate final concentrations with the addition of 10 mL of an aqueous mixture of 1.25% (v/v) COC so that the final spray solutions contained 1.25% (v/v) COC. […]
(§7) The treated and control pots were placed in a greenhouse and top watered as needed. […] After approximately 4 weeks, the condition of the test plants as compared with that of the untreated plants was determined visually and scored on a scale of 0 to 100 percent where 0 corresponds to no injury or growth inhibition and 100 corresponds to complete kill. […]

XANST = experiment: as above; format: in vivo, Xanthium strumarium L.
Source text: as §3, §4, §5, §6
(§8) For treatments comprised of formulated compounds, measured amounts of compounds were placed individually in 25 mL glass vials and diluted in a volume of 1.25% (v/v) Agri-Dex® crop oil concentrate (COC) to obtain 12× stock solutions. […] Application solutions were prepared by adding an appropriate amount of each stock solution (e.g., 1 mL) and diluted to the appropriate final concentrations with the addition of 10 mL of an aqueous mixture of 1.25% (v/v) COC so that the final spray solutions contained 1.25% (v/v) COC.
(§9) All stock solutions and applications solutions were visually inspected for compound compatibility prior to application. Spray solutions were applied to the soil with an overhead Mandel track sprayer equipped with a 8002E nozzles calibrated to deliver 187 L/ha over an application area of 0.503 m^2 at a spray height of 18 inches (46 cm) above average pot height. Control pots were sprayed in the same manner with the solvent blank.
as §7, with “needed. When required to ensure good germination and healthy plants, a fungicide treatment and/or other chemical or physical treatment was applied. The pots were maintained in a greenhouse with an approximate 14 hr photoperiod which was maintained at about 29° C. during the day and 26° C. during the night.” for “needed.”

IPOHE [4] = experiment: as above; format: in vivo, Ipomoea hederacea (L.) Jacq.
Source text: as §3, §4, §5, §6, §8, §9
The treated and control pots were placed in a greenhouse and top watered as needed. When required to ensure good germination and healthy plants, a fungicide treatment and/or other chemical or physical treatment was applied. The pots were maintained in a greenhouse with an approximate 14 hr photoperiod which was maintained at about 29° C. during the day and 26° C. during the night. Nutrients (Peters® Excel 15-5-15 5-Ca 2-Mg) were applied in the irrigation solution as needed and water was added on a regular basis. Supplemental lighting was provided with overhead metal halide 1000-Watt lamps as necessary. After approximately 4 weeks, the condition of the test plants as compared with that of the untreated plants was determined visually and scored on a scale of 0 to 100 percent where 0 corresponds to no injury or growth inhibition and 100 corresponds to complete kill.
as §1, §2

COC(=O)c1cc(Oc2ccc(Cl)cc2Cl)ccc1[N+](=O)[O-] [Bifenox, methyl 5-(2,4-dichlorophenoxy)-2-nitrobenzoate]
Visual Weed Control (%) - 21 DAA ECHOR Obs (ECHOR; Bifenox (technical) 720 g ai/ha alone): 40%
Visual Weed Control (%) - 21 DAA PAPRH Obs (PAPRH; 180 g ai/ha alone): 5%
Visual Weed Control (%) - 21 DAA PAPRH Obs (PAPRH; 360 g ai/ha alone): 8%
Visual Weed Control (%) - 21 DAA PAPRH Obs (PAPRH; 780 g ai/ha alone): 8%
Visual Weed Control (%) - 21 DAA CYPIR Obs (CYPIR; g ae/ha Compound A Benzyl Ester+g ai/ha bifenox (Fox ®): r17 8+0, r18 0+180, r19 0+360, r20 0+720, r21 8+180, r22 8+360, r23 8+720): 0%
Visual Weed Control (%) - 22 DAA CYPIR Obs (CYPIR; g ae/ha Compound A Benzyl Ester+g ai/ha bifenox (technical): r23 8+0, r24 16+0, r25 0+180, r26 0+720, r27 8+180, r28 16+180, r29 8+720, r30 16+720): 0%
Visual Weed Control (%) - 21 DAA IPOHE Obs (IPOHE [1]; g ae/ha Compound A Benzyl Ester+g ai/ha bifenox (Fox ®): r11 16+0, r12 32+0, r13 0+180, r14 16+180, r15 32+180): 55%
Visual Weed Control (%) - 21 DAA SCPMA Obs (SCPMA): 40%

COc1c(Cl)ccc(-c2nc(C(=O)O)c(Cl)c(N)c2F)c1F [Compound A Acid, 4-amino-3-chloro-5-fluoro-6-(4-chloro-2-fluoro-3-methoxy-phenyl)pyridine-2-carboxylic acid]
Visual Weed Control (%) - 21 DAA ECHCG Obs (ECHCG; 8.75 g ae/ha alone): 15%
Visual Weed Control (%) - 20 DAA ECHCG Obs (ECHCG; 17.5 g ae/ha alone): 50%
Visual Weed Control (%) - 21 DAA ECHCG Obs (ECHCG; 17.5 g ae/ha alone): 20%
Visual Weed Control (%) - 20 DAA ECHCG Obs (ECHCG; 35 g ae/ha alone): 95%
Visual Weed Control (%) - 21 DAA ECHCG Obs (ECHCG; 35 g ae/ha alone): 95%
Visual Weed Control (%) - 19 DAA ECHOR Obs (ECHOR; g ae/ha Compound A Acid+g ai/ha carfentrazone-ethyl: r28 42.4+0, r29 0+215, r30 42.4+215): 15%
Visual Weed Control (%) - 20 DAA CYPIR Obs (CYPIR; g ae/ha Compound A Acid+g ai/ha saflufenacil: r24 4.38+0, r25 0+5, r26 0+10, r27 0+20, r28 4.38+5, r29 4.38+10, r30 4.38+20): 30%
Visual Weed Control (%) - 20 DAA LEFCH Obs (LEFCH [2]; 17.5 g ae/ha alone): 0%
Visual Weed Control (%) - 20 DAA LEFCH Obs (LEFCH [2]; 35 g ae/ha alone): 30%
Visual Weed Control (%) - 21 DAA LEFCH Obs (LEFCH [2]; 35 g ae/ha alone): 5%
Visual Weed Control (%) - 21 DAA LEFCH Obs (LEFCH [2]; 70 g ae/ha alone): 23%
Visual Weed Control (%) - 21 DAA FIMMI Obs (FIMMI): 0%
Visual Weed Control (%) - 21 DAA SCPJU Obs (SCPJU; 8.75 g ae/ha alone): 40%
Visual Weed Control (%) - 21 DAA SCPJU Obs (SCPJU; 17.5 g ae/ha alone): 60%
Visual Weed Control (%) - 21 DAA SCPJU Obs (SCPJU; 35 g ae/ha alone): 95%
Visual Weed Control (%) - 20 DAA IPOHE Obs (IPOHE [1]; first section, g ae/ha Compound A Acid+g ai/ha oxadiazon: r12 8.75+0, r13 0+31.25, r14 0+62.5, r15 0+125, r16 8.75+31.25, r17 8.75+62.5, r18 8.75+125): 10%
Visual Weed Control (%) - 21 DAA IPOHE Obs (IPOHE [1]; g ae/ha Compound A Acid+g ai/ha pyraclonil: r53 35+0, r54 0+270, r55 35+270): 45%
Visual Weed Control (%) - 20 DAA ECHCO Obs (ECHCO): 40%
Visual Weed Control (%) - 20 DAA CYPRO Obs (CYPRO; 8.75 g ae/ha alone): 0%
Visual Weed Control (%) - 20 DAA CYPRO Obs (CYPRO; 17.5 g ae/ha alone): 20%
Visual Weed Control (%) - 20 DAA CYPRO Obs (CYPRO; 35 g ae/ha alone): 80%
Visual Weed Control (%) - 21 DAA CYPRO Obs (CYPRO; 35 g ae/ha alone): 70%
Visual Weed Control (%) - 19 DAA LEFCH Obs (LEFCH [3]): 5%
Visual Weed Control (%) - 20 DAA BRAPP Obs (BRAPP): 10%

C#CCN1C(=O)COc2cc(F)c(N3C(=O)C4=C(CCCC4)C3=O)cc21 [Fumioxazin]
Visual Weed Control (%) - 28 DAA SETVI Obs (SETVI): 73%
Visual Weed Control (%) - 29 DAA XANST Obs (XANST; 105 g ai/ha alone): 18%
Visual Weed Control (%) - 29 DAA XANST Obs (XANST; 210 g ai/ha alone): 48%
Visual Weed Control (%) - 28 DAA IPOHE Obs (IPOHE [4]; 105 g ai/ha alone): 70%
Visual Weed Control (%) - 28 DAA IPOHE Obs (IPOHE [4]; 210 g ai/ha alone): 70%
Visual Weed Control (%) - 28 DAA IPOHE Obs (IPOHE [4]; 420 g ai/ha alone): 90%
